Laboratory results from US6150335A, “Tic-containing opioid dipeptide derivatives useful as analgesics” (Astra AB, priority 1996, dated 2000).

Legend:
mouse vas deferens (MVD) = test: Mouse vas deferens (MVD) bioassay: inhibition of electrically evoked contractions; assay type: cell-based; details: for IC50 / MVD IC50: inhibition of electrically evoked contractions, normalized with [Leu5]enkephalin standard, effect mostly δ-mediated; for GPI/MVD IC50 ratio: ratio of GPI IC50 to MVD IC50; for δ opioid agonist character (full / partial): conclusion from MVD and GPI assays
Protocol: (§1) Bioassays based on inhibition of electrically evoked contractions of the mouse vas deferens (MVD) and of the guinea pig ileum (GPI) were performed. In the GPI assay the opioid effect is primarily mediated by μ opioid receptors, whereas in the MVD assay the inhibition of the contractions is mostly due to interaction with δ opioid receptors.
(§2) The GPI and MVD bioassays were carried out as reported in P. W. Schiller et al., Biochem. Biophys. Res. Commun. 85, 1332-1338 (1978) and J. DiMaio et al., J. Med. Chem. 25, 1432-1438 (1982). A log-dose response curve was determined with [Leu^5 ]enkephalin as standard for each ileum and vas preparation, and IC50 values of the compounds being tested were normalized according to A. A. Waterfield et al., Eur. J. Pharmacol. 58, 11-18 (1979).

δ opioid receptor = target: T1, δ opioid receptor (Rattus norvegicus, UniProt P33533); test: δ opioid receptor binding assay, displacement of [3H]DSLET from rat brain membranes; details: for Ki: rat brain membranes, [3H]DSLET 1.0 nM, Cheng-Prusoff; for Ki^μ/Ki^δ: δ versus μ receptor selectivity
T1 construct: Male Sprague-Dawley rats (300-350 g) from the Canadian Breeding Laboratories were decapitated and after removal of the cerebellum the brains were homogenized; from tissue; host or cells: rat brain (without cerebellum) membranes, male Sprague-Dawley
T1 sequence (P33533 whole entry): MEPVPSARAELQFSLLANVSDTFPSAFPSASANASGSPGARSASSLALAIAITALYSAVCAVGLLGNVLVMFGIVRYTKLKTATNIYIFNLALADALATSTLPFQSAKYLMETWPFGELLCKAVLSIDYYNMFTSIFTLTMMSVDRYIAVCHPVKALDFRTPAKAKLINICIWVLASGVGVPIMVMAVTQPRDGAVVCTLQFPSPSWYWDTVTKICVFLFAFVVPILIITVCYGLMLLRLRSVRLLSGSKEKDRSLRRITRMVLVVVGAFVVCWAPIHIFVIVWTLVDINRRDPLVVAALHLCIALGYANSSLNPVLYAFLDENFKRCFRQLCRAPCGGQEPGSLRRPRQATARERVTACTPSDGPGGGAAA
Protocol: (§3) μ and δ opioid receptor binding constants (Ki^μ,Ki^δ) of the compounds were determrined by displacement of relatively selective μ and δ radioligands from binding sites in rat brain membrane preparations calculated from the measured IC50 values on the basis of the equation by Cheng and Prusoff, (Y. C. Cheng and W. H. Prusoff Biochem. Pharmnacol. 22, 3099-3102 (1973)).
The μ-, δ- and κ-opioid receptor affinities of all new analogs were determined in binding assays based on displacement of μ-, δ- and κ-selective radioligands from rat brain membrane binding sites. In the case of κ-ligands guinea pig brain homogenates were used, since the relative proportion of κ-binding sites is higher in guinea pig brain than in rat brain. The experimental procedure being used in our laboratory represents a modified version of the binding assay described by Pasternak et al. (Mol. Pharnacol. 11, 340-351 (1975)). Male Sprague-Dawley rats (300-350 g) from the Canadian Breeding Laboratories were decapitated and after removal of the cerebellum the brains were homogenized in 30 volumes of ice-cold standard buffer (50 mnM Tris HCl , pH 7.7). After centrifugation at 30,000×g for 30 min at 4° C. the membranes were reconstituted in the original volume of standard buffer and incubated for 30 min at 37° C. (to release bound endogenous ligands). Subsequent centrifugation and resuspension of the pellet in the initial volume of fresh standard buffer yielded the final membrane suspension. Aliquots (2 ml) of the membrane preparations were incubated for 1-2 h at 25° C. with 1 ml standard buffer containing the peptide to be tested and one of the following radioligands at the final concentration indicated: [^3 H]DAMGO, μ-selective, 0.7 nM; […]; and [^3 H]U69,563, κ-selective, 0.5 nM. The incubation was terminated by filtration through Whatman GF/B filters under vacuum at 4° C. Following two washings with 5 ml portions of ice-cold standard buffer the filters were transferred to scintillation vials and treated with 1 ml Protosol (New England Nuclear) for 30 min prior to addition of 0.5 ml acetic acid and 10 ml Aquasol (New England Nuclear). After shaking for 30 min the vials were counted at an efficiency of 40-45%. All experiments were performed in duplicate and repeated at least three times. Specific binding of each of the three radioligands was defined by performing incubations in the presence of cold DAMGO, DSLET and U69,563, respectively, at a concentration of 1 micromolar. Values of half-maximal inhibition (IC50) of specific binding were obtained graphically from semilogarithmic plots. From the measured IC50-values, binding inhibition constants (Ki) were calculated based on Cheng and Prusoff's equation (Biochem. Pharmacol. 22, 3099-3102 (1973)). Ratios of the Ki -values determined in the μ-, δ- and κ-representative binding assays are a measure of the receptor selectivity of the compound under investigation (e.g. Ki^μ /Ki^μ indicates the selectivity for δ-receptors versus μ-receptors).

μ opioid receptor = target: T2, μ opioid receptor (Rattus norvegicus, UniProt P33535); test: μ opioid receptor binding assay, displacement of [3H]DAMGO from rat brain membranes; details: [3H]DAMGO 0.7 nM, Cheng-Prusoff
T2 construct: Male Sprague-Dawley rats (300-350 g) from the Canadian Breeding Laboratories were decapitated and after removal of the cerebellum the brains were homogenized; from tissue; host or cells: rat brain (without cerebellum) membranes, male Sprague-Dawley
T2 sequence (P33535 whole entry): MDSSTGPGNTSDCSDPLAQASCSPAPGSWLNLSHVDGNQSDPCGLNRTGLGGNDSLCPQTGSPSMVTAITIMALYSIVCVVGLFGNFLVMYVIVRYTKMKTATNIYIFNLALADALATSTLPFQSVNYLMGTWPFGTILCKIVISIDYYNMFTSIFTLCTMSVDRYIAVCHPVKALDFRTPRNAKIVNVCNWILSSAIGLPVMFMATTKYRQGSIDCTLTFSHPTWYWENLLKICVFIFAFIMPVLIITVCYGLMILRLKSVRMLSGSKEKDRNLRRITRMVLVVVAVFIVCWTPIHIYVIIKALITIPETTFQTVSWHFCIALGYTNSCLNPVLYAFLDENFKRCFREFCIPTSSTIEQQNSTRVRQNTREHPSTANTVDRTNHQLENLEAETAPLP
Protocol: as §3
The μ-, δ- and κ-opioid receptor affinities of all new analogs were determined in binding assays based on displacement of μ-, δ- and κ-selective radioligands from rat brain membrane binding sites. In the case of κ-ligands guinea pig brain homogenates were used, since the relative proportion of κ-binding sites is higher in guinea pig brain than in rat brain. The experimental procedure being used in our laboratory represents a modified version of the binding assay described by Pasternak et al. (Mol. Pharnacol. 11, 340-351 (1975)). Male Sprague-Dawley rats (300-350 g) from the Canadian Breeding Laboratories were decapitated and after removal of the cerebellum the brains were homogenized in 30 volumes of ice-cold standard buffer (50 mnM Tris HCl , pH 7.7). After centrifugation at 30,000×g for 30 min at 4° C. the membranes were reconstituted in the original volume of standard buffer and incubated for 30 min at 37° C. (to release bound endogenous ligands). Subsequent centrifugation and resuspension of the pellet in the initial volume of fresh standard buffer yielded the final membrane suspension. Aliquots (2 ml) of the membrane preparations were incubated for 1-2 h at 25° C. with 1 ml standard buffer containing the peptide to be tested and one of the following radioligands at the final concentration indicated: [^3 H]DAMGO, μ-selective, 0.7 nM; [^3 H]DSLET, […] nM; and [^3 H]U69,563, κ-selective, 0.5 nM. The incubation was terminated by filtration through Whatman GF/B filters under vacuum at 4° C. Following two washings with 5 ml portions of ice-cold standard buffer the filters were transferred to scintillation vials and treated with 1 ml Protosol (New England Nuclear) for 30 min prior to addition of 0.5 ml acetic acid and 10 ml Aquasol (New England Nuclear). After shaking for 30 min the vials were counted at an efficiency of 40-45%. All experiments were performed in duplicate and repeated at least three times. Specific binding of each of the three radioligands was defined by performing incubations in the presence of cold DAMGO, DSLET and U69,563, respectively, at a concentration of 1 micromolar. Values of half-maximal inhibition (IC50) of specific binding were obtained graphically from semilogarithmic plots. From the measured IC50-values, binding inhibition constants (Ki) were calculated based on Cheng and Prusoff's equation (Biochem. Pharmacol. 22, 3099-3102 (1973)). Ratios of the Ki -values determined in the μ-, δ- and κ-representative binding assays are a measure of the receptor selectivity of the compound under investigation (e.g. Ki^μ /Ki^μ indicates the selectivity for δ-receptors versus μ-receptors).

guinea pig ileum (GPI) = test: Guinea pig ileum (GPI) bioassay: inhibition of electrically evoked contractions; assay type: cell-based; details: normalized with [Leu5]enkephalin standard, effect primarily μ-mediated
Protocol: as §1, §2

SMILES	IC50 (mouse vas deferens (MVD)) [µM]	GPI/MVD IC50 ratio (mouse vas deferens (MVD))	Ki (δ opioid receptor) [µM]	Ki^μ/Ki^δ (δ opioid receptor)	Ki (μ opioid receptor) [µM]	IC50 (guinea pig ileum (GPI)) [µM]	δ opioid agonist character (full / partial) (mouse vas deferens (MVD))	MVD IC50 (mouse vas deferens (MVD))
CCOC(=O)C(CNC(=O)[C@@H]1Cc2ccccc2CN1C(=O)[C@@H](N)Cc1ccc(O)cc1)c1ccccc1 (single isomer, unassigned) [Example 15]	0.00128 ± 0.00018	>7810	0.000569 ± 8e-05	1560	0.886 ± 0.172	> 10	–	–
CCOC(=O)C(CNC(=O)[C@@H]1Cc2ccccc2CN1C(=O)[C@@H](N)Cc1ccc(O)cc1)c1ccccc1 (single isomer, unassigned) [Example 16]	0.00864 ± 0.00131	>1160	0.00303 ± 0.00066	50.5	0.153 ± 0.005	> 10	–	–
NC(=O)C(CNC(=O)[C@@H]1Cc2ccccc2CN1C(=O)[C@@H](N)Cc1ccc(O)cc1)c1ccccc1 (single isomer, unassigned) [Example 17]	0.034 ± 0.0029	62.9	0.0215 ± 0.0042	3.43	0.0737 ± 0.0006	2.14 ± 0.47	–	–
NC(=O)C(CNC(=O)[C@@H]1Cc2ccccc2CN1C(=O)[C@@H](N)Cc1ccc(O)cc1)c1ccccc1 (single isomer, unassigned) [Example 18]	–	–	0.0228 ± 0.0025	8.38	0.191 ± 0.019	> 10	partial δ agonists	partial agonist
NC(Cc1ccc(O)cc1)C(=O)N1Cc2ccccc2CC1C(=O)NC1CC1c1ccccc1 (single isomer, unassigned) [Example 21]	–	–	0.00413 ± 0.00027	9.20	0.038 ± 0.0112	1.6 ± 0.5	partial δ agonists	partial agonist
NC(Cc1ccc(O)cc1)C(=O)N1Cc2ccccc2CC1C(=O)NC1CC1c1ccccc1 (single isomer, unassigned) [Example 22]	0.00731 ± 0.0023	70.9	0.00136 ± 0.00015	8.46	0.0115 ± 0.0011	0.518 ± 0.147	–	–
N[C@@H](Cc1ccc(O)cc1)C(=O)N1Cc2ccccc2C[C@H]1C(=O)NCC(CO)c1ccccc1 (single isomer, unassigned) [Example 27]	0.0136 ± 0.0022	38.7	0.00126 ± 0.00011	55.8	0.0703 ± 0.0023	0.526 ± 0.051	–	–
N[C@@H](Cc1ccc(O)cc1)C(=O)N1Cc2ccccc2C[C@H]1C(=O)NCC(CO)c1ccccc1 (single isomer, unassigned) [Example 28]	0.0926 ± 0.006	> 108	0.0078 ± 0.0028	31.0	0.242 ± 0.02	> 10	–	–
